Laboratory results taken from patent US11891667B2, “IGF2BP3 functional alterations and overexpression as a marker for cancer diagnosis and therapeutic response to IGF1R inhibitors” (UNIVERSITY OF PITTSBURGH-OF THE COMMONWEALTH SYSTEM OF …, priority 2016, dated 2024).

How the values were obtained:
[1] = system: U2OS cells with induced IGF2BP3 expression; test: Cell growth of U2OS cells transiently transfected with IGF2BP3; format: cell-based; details: IGF2BP3 induced by transient transfection, FIG. 5C
Protocol: (§1) The effects of IGF1R inhibition on the growth of cancer cells driven by IGF2PB3 overexpression were then tested. First, studies were conducted to determine if activation of the AKT and MAPK pathways and cell growth induced by IGF2BP3 overexpression is affected by inhibiting IGF1R by OSI-906 in vitro. […] The experiments were repeated in quadruplicate and were calculated as percentage of viable cells after treatment with OSI-906 (mean±SD). […] Again, the assay was performed in quadruplicate and shown as mean±SD.

solid tumors = details: cited from earlier work
[2] = system: FTC133 thyroid cancer cell tumors; test: FTC133 xenograft in nude mice; format: in vivo; details: FIG. 5G; for tumor growth: FTC133 subcutaneous xenograft, nude mice, therapeutic doses
Protocol: (§2) Next, tumor cells overexpressing IGF2BP3 were tested to see if their growth can be blocked via IGF1R inhibition in vivo using a xenograft experimental model. Pancreatic cancer cells PaCa-2 and colon cancer cells Caco-2, both expressing IGF2PB3 at high level (FIG. 5B), and thyroid cancer cells FTC133 with low levels of IGF2BP3 expression were employed to establish tumors growing in nude mice at sites of subcutaneous cell injection.

PaCa-2 cancer cells = test: Cell growth/proliferation of PaCa-2 cancer cells (high IGF2BP3); format: cell-based, human
Protocol: as §1

U2OS cells = test: Cell growth/proliferation of U2OS cells (low IGF2BP3); format: cell-based
Protocol: as §1

[3] = system: FTC133 cells with induced IGF2BP3 expression; test: Cell growth of FTC133 cells transiently transfected with IGF2BP3; format: cell-based, human; details: FTC133, IGF2BP3 induced by transient transfection, FIG. 5C
Protocol: as §1

FTC133 cells = test: Cell growth/proliferation of FTC133 cells (low IGF2BP3); format: cell-based, human
Protocol: as §1

[4] = system: Caco-2 colon cancer cell tumors; test: Caco-2 xenograft in nude mice; format: in vivo; details: FIG. 5F; for tumor growth: Caco-2 subcutaneous xenograft, nude mice, therapeutic doses
Protocol: as §2

[5] = system: PaCa-2 pancreatic cancer cell tumors; test: PaCa-2 xenograft in nude mice; format: in vivo; details: FIG. 5F; for tumor growth: PaCa-2 subcutaneous xenograft, nude mice, therapeutic doses
Protocol: as §2

PaCa-2 cells = test: Soft agar colony formation of PaCa-2 cells; format: cell-based, human
Protocol: Finally, the impact of IGF2BP3 overexpression on cell transformation was investigated.
as §1

IGF1R = test: Western blotting of IGF1R phosphorylation and downstream signaling in HEK293 cells overexpressing IGF2BP3; format: cell-based; details: FIG. 5A
Protocol: as §1

## C[C@]1(O)C[C@@H](c2nc(-c3ccc4ccc(-c5ccccc5)nc4c3)c3c(N)nccn32)C1 [OSI-906, linsitinib]
[1]
  cell growth: acquired sensitivity to growth inhibition
Solid tumors; clinical trials, patients with solid tumors
  proportion of patients with clinical response: 1-5%
Solid tumors; clinical trials
  efficacy in patients in clinical trials: ineffective in the vast majority of patients
Solid tumors; colorectal cancer, non-small cell lung cancer, sarcoma, and other cancer types
  tumor responsiveness in clinical trials: only low levels of tumor responsiveness were observed
[2]
  tumor growth: had no effect on the growth
[2]; listed as linsitinib
  tumor growth: not impacted
[2]; FTC133 xenograft tumor tissue
  phosphorylated IGF1R, AKT, S6, and ERK in the tumor tissue: did not show reduction in the phosphorylation
PaCa-2 cancer cells; PaCa-2, strongly overexpress IGF2BP3, FIG. 5B
  cell growth: dose-dependent growth inhibition
PaCa-2 cancer cells; PaCa-2, treatment for 72 hours, FIG. 5B bottom panel
  proliferation (percentage of viable cells): inhibition of proliferation
U2OS cells; low IGF2BP3 expression, FIG. 5B
  cell growth: did not have any effects
U2OS cells; treatment for 72 hours, FIG. 5B bottom panel
  proliferation (percentage of viable cells): no effect on proliferation
[3]
  cell growth: acquired sensitivity to growth inhibition
FTC133 cells; FTC133, low IGF2BP3 expression, FIG. 5B
  cell growth: did not have any effects
FTC133 cells; FTC133, treatment for 72 hours, FIG. 5B bottom panel
  proliferation (percentage of viable cells): no effect on proliferation
[4]
  tumor growth: arrested growth of tumors
[4]; listed as linsitinib
  tumor growth: particularly inhibited
[4]; Caco-2 xenograft tumor tissue
  phosphorylated IGF1R, AKT, S6, and ERK in the tumor tissue: reduction of phosphorylated IGF1R, AKT, S6, and ERK
[5]
  tumor growth: arrested growth of tumors
[5]; listed as linsitinib
  tumor growth: particularly inhibited
[5]; PaCa-2 xenograft tumor tissue
  phosphorylated IGF1R, AKT, S6, and ERK in the tumor tissue: reduction of phosphorylated IGF1R, AKT, S6, and ERK
PaCa-2 cells
  colony formation in soft agar: significant reduction of colony formation
IGF1R; 5 μM, 30 minutes
  IGF1R phosphorylation and downstream signaling induced by IGF2BP3: inhibition of IGF1R phosphorylation and downstream signaling
IGF1R; Western blotting
  phosphorylation of AKT, S6, and ERK induced by IGF2BP3 overexpression: blocked phosphorylation of AKT, S6, and ERK
